Earlier results on six compounds are cited in US8207181B2, “Substituted dihydro, trihydro and tetrahydro cycloalkyloxazolopyrimidinones, preparation and use thereof” (Sanofi, priority 2008, dated 2012).

One data set deals with schizophrenia. The settings on record: compared to placebo.
Another data set has as its system animal models. Conditions: some animal models.
The test system of a further data set is healthy human subjects. Conditions: pretreatment.
Data set [1] deals with pentylenetetrazole- and picrotoxin-induced seizures.

Turning to `CSCC[C@H](N)C(=O)N[C@@]1(C(=O)O)CS(=O)(=O)[C@H]2[C@H](C(=O)O)[C@H]21` [LY2140023], the “improvement in positive and negative symptoms of schizophrenia” value in the data set on schizophrenia is “statistically significant improvements in both positive and negative symptoms of schizophrenia”.
For the compound `N[C@]1(C(=O)O)[C@H]2[C@@H](C[C@H]1OCc1ccc(Cl)c(Cl)c1)[C@]2(F)C(=O)O` [MGS0039], in the data set with animal models, the antidepressant-like effects entry is “dose-dependent antidepressant-like effects”.
`N[C@@]1(C(=O)O)CO[C@H]2[C@H](C(=O)O)[C@H]21` [LY379268]: in the data set with rat, the “effect on REM sleep and fast EEG” value is “suppresses rapid eye movement (REM) sleep and fast EEG”.
As for `Cc1c(OCc2cccc(-c3ccc(C(=O)O)cc3)c2)cc2c(c1C)C(=O)C(C1CCCC1)C2` (stereo not shown) [biphenyl-indanone A], the “antipsychotic- and anxiolytic-like effects” value with mice is “antipsychotic- and anxiolytic-like effects”.
For `N[C@@]1(C(=O)O)CC[C@H]2[C@H](C(=O)O)[C@H]21` [LY354740], the “effect on ketamine disruption of working memory” value in the data set with healthy human subjects is “attenuation of the disruptive effects of the NMDA glutamate receptor antagonist, ketamine, on working memory”. The “effect on chemically induced seizures” value in data set [1] was “attenuates pentylenetetrazole- and picrotoxin-induced seizures”.
In the case of `N[C@H](C(=O)O)c1ccc(C(=O)O)c(O)c1` [(S)-4-carboxy-3-hydroxyphenylglycine], the “protection against audiogenic seizures” value in the data set with DBA/2 mice is reported as “protects against audiogenic seizures”.
